Measurements taken from US20230255962A1, “COMBINATION OF A BTK INHIBITOR AND AN INHIBITOR OF CDK9 TO TREAT CANCER” (ASTRAZENECA AB, priority 2017, published 2023).

Experiments:
OCILy10 tumor cells = assay: Subcutaneous tumor model, tumor volume; type: in vivo, C.B.-17 SCID female mice; settings: OCILy10, following 3 cycles of dosing; AZD4573 ip BID 2 on/5 off, ibrutinib 12 mg/kg po QD
Protocol: AZD4573 was formulated in dimethylacetamide (DMA)/polyethylene glycol 400 (PEG 400)/1% w/v Tween 80 solution 2/30/68 and dosed at 5 mL/kg, intraperitoneally (ip), BID with a 2 hour split on days 1 and 2 followed by a 5 day dose holiday; i.e., a 2 on/5 off schedule. […]
5×10^6 OCILy10 tumor cells or 10×10^6 TMD8 tumor cells were injected subcutaneously in the right flank of C.B.-17 SCID female mice in a volume of 0.1 mL containing 50% matrigel. 10×10^6 Karpas-422 tumor cells were injected subcutaneously in the right flank of SCID beige female mice in a volume of 0.1 mL containing 50% matrigel. Tumor volumes (measured by caliper), animal body weight, and tumor condition were recorded twice weekly for the duration of the studies. The tumor volume was calculated using the formula: length (mm)×width (mm)^2×0.52. For efficacy studies, growth inhibition from the start of treatment was assessed by comparison of the differences in tumor volume between control and treated groups. […]
AZD4573 was formulated in dimethylacetamide (DMA)/polyethylene glycol 400 (PEG 400)/1% w/v Tween 80 solution 2/30/68 and dosed at 5 mL/kg, intraperitoneally (ip), bi-daily (BID) with a 2 hour split on days 1 and 2 with a 5 day dose holiday. […] Tumor volumes (measured by caliper), animal body weight, and tumor condition were recorded twice weekly for the duration of the studies. […]

TMD8 [1] = assay: Western blot time course, cleaved caspase-3 (induction of apoptosis); type: cell-based; settings: TMD8, 100 nM AZD4573 8-hour time course, alone or following 24-hour pre-treatment with 100 nM acalabrutinib
Protocol: (§1) Two BTK inhibitor-sensitive ABC-DLBCL cell lines (OCILy10 and TMD8) and one insensitive GCB-DLBCL cell line (Karpas422) were treated for an 8-hour time course with either 100 nM AZD4573 alone or following a 24-hour pre-treatment with 100 nM acalabrutinib (since exposure to acalabrutinib for 24 hours was sufficient to induce maximal BH3-only protein levels). Cells were harvested for protein lysates at varying time points (0, 0.5, 1, 2, 4, and 8 hours) post-AZD4573 treatment, normalized for protein concentration using the BCA Protein Assay Kit, and run for western blots according to standard protocols. To ensure expected target engagement was achieved, the blots were probed for the proximal and distal biomarkers for CDK9 (pSer2-RNAPolII and Mcl-1, respectively) and the biomarker for activated BTK (pBTK). To gauge the time to induction of apoptosis, cleaved caspase-3 was also assessed. A loading control (vinculin) was also utilized for normalization.

OCILy10 [2] = assay: TMRE/DAPI flow cytometry, percentage of apoptotic or dead cells; type: cell-based
Protocol: (§2) Two BTK inhibitor-sensitive ABC-DLBCL cell lines (OCILy10 and TMD8) and one insensitive GCB-DLBCL cell line (Karpas422) were treated with either vehicle (DMSO), 100 nM acalabrutinib, or 100 nM AZD4573 for varying lengths of time as either single agent or in combination. Since exposure of BTKi-sensitive cell lines to acalabrutinib for 24 hours was sufficient to induce maximal BH3-only protein levels relative to vehicle-treated cells (FIG. 1), 24-hour pre-treatment of acalabrutinib was chosen for one of the combination sequences. Therefore, cells were treated with: 32 hours of acalabrutinib alone; 8 hours of AZD4573 alone; 8 hours of AZD4573 and acalabrutinib dosed concurrently; or 32 hours of acalabrutinib with AZD4573 added sequentially for the final 8 of those 32 hours (in other words, 24 hours of acalabrutinib pre-treatment).
(§3) The percentage of apoptotic or dead cells was determined by staining the samples with both tetramethylrhodamine, ethyl ester (TMRE) and 4′,6-diamidino-2-phenylindole (DAPI) and then subjecting them to flow cytometry using a BD LSR Fortessa. TMRE is a positively charged dye that accumulates in active mitochondria, and cells undergoing apoptosis experience mitochondrial outter membrane permeabilization (MOMP), which then fails to retain TMRE. […] Following appropriate treatments, cells were stained directly with 200 nM TMRE, incubated for 30 minutes at 37° C., resuspended in flow buffer containing DAPI, and subjected to flow cytometry. Flowjo was used to establish appropriate gates according to viability (DAPI) and MOMP (TMRE), and viable cells were defined as those with low DAPI and high TMRE staining.

OCILy10 [3] = assay: Western blot time course, cleaved caspase-3 (induction of apoptosis); type: cell-based; settings: OCILy10, 100 nM AZD4573 8-hour time course, alone or following 24-hour pre-treatment with 100 nM acalabrutinib
Protocol: as §1
The BTK inhibitor-sensitive ABC-DLBCL cell line OCILy10 was treated in vitro for an 8-hour time course with either 100 nM AZD4573 alone or following a 24-hour pre-treatment with 30 nM ibrutinib since, similar to acalabrutinib, exposure for 24 hours was sufficient to induce maximal BH3-only protein levels (data not shown). […] To gauge the time to induction of apoptosis, cleaved caspase-3 was also assessed. […]

OCILy10 [4] = assay: Western blot of Bcl2 family / BH3-only protein levels; type: cell-based
Protocol: (§4) OCILy10, TMD8, and Karpas422 were treated with either vehicle or 100 nM acalabrutinib for 2 to 72 hours. Protein lysates were harvested at multiple time points in that interval, protein concentration was determined using the BCA Protein Assay Kit, and Western blots were performed according to standard protocol to assess the effects on Bcl2 family protein levels. Each sample was normalized to vinculin as a loading control, and then protein levels of acalabrutinib-treated samples were calculated relative to those of vehicle-treated samples.
The BTK inhibitor-sensitive ABC-DLBCL cell line OCILy10 was treated in vitro for an 8-hour time course with either 100 nM AZD4573 alone or following a 24-hour pre-treatment with 30 nM ibrutinib since, similar to acalabrutinib, exposure for 24 hours was sufficient to induce maximal BH3-only protein levels (data not shown). Cells were harvested for protein lysates at varying time points (0, 0.5, 1, 2, 4, and 8 hours) post-AZD4573 treatment, normalized for protein concentration using the BCA Protein Assay Kit, and run for Western blots according to standard protocols. To ensure expected target engagement was achieved, the blots were probed for the proximal and distal biomarkers for CDK9 (pSer2-RNAPolII and Mcl-1, respectively) and the biomarker for activated BTK (pBTK). […] To gauge the time to induction of apoptosis, cleaved caspase-3 was also assessed. […]

TMD8 [5] = assay: CellTiter-Glo viability readout, 72 hours, GI50; type: cell-based; settings: TMD8, 10-point dose-response
Protocol: (§5) Two ABC-DLBCL (OCILy10 and TMD8) cell lines and one GCB-DLBCL (Karpas422) cell line were treated with either vehicle (DMSO) or a 10-point, ½ log serially dilution of acalabrutinib for 72 hours with a CellTiter-Glo viability readout. The concentration at which 50% growth is inhibited (GI50) was calculated using GraphPad Prism or GeneData.

OCILy10 [6] = assay: CellTiter-Glo viability readout, 72 hours, GI50; type: cell-based; settings: OCILy10, 10-point dose-response
Protocol: as §5

Karpas422 [7] = assay: Western blot of Bcl2 family / BH3-only protein levels; type: cell-based; settings: Karpas422, 100 nM acalabrutinib
Protocol: as §4

TMD8 [8] = assay: as above; type: cell-based
Protocol: as §4

Karpas422 [9] = assay: TMRE/DAPI flow cytometry, percentage of apoptotic or dead cells; type: cell-based; settings: Karpas-422, 100 nM acalabrutinib alone or in combination with 100 nM AZD4573
Protocol: as §2, §3

CC(=O)N[C@@H]1CCC[C@H](C(=O)Nc2cc(-c3cnn4c3CC(C)(C)C4)c(Cl)cn2)C1 [AZD4573, (1S,3R)-3-acetamido-N-(5-chloro-4-(5,5-dimethyl-5,6-dihydro-4H-pyrrolo[1,2-b]pyrazol-3-yl)pyridin-2-yl)cyclohexanecarboxamide]
complete response, % of treated animals (OCILy10 tumor cells): 100%
induction of cleaved caspase (TMD8 [1]): mild caspase activation by 8 hours
cell death (OCILy10 [2]; OCI-LY-10, 8 hours of 100 nM AZD4573 alone): ~40%
induction of cleaved caspase (OCILy10 [3]): mild caspase activation by 8 hours

CC#CC(=O)N1CCC[C@H]1c1nc(-c2ccc(C(=O)Nc3ccccn3)cc2)c2c(N)nccn12 [acalabrutinib, (S)-4-(8-amino-3-(1-but-2-ynoylpyrrolidin-2-yl)imidazo[1,5-a]pyrazin-1-yl)-N-(pyridin-2-yl)benzamide]
time to maximal BH3-only protein levels following dosing (OCILy10 [4]; BTK inhibitor-sensitive cells (OCILy10), 100 nM): ≤ 24 h
levels of pro-apoptotic BH3-only proteins Bim and Bmf (OCILy10 [4]; OCILy10, 100 nM acalabrutinib, 24 hours, relative to the insensitive cell line): increased
sensitivity to BTK inhibition (dose-response) (TMD8 [5]): sensitive
sensitivity to BTK inhibition (dose-response) (OCILy10 [6]): sensitive
BH3-only protein levels (Karpas422 [7]): did not increase
time to maximal BH3-only protein levels following dosing (TMD8 [8]; BTK inhibitor-sensitive cells (TMD8), 100 nM): ≤ 24 h
levels of pro-apoptotic BH3-only proteins Bim and Bmf (TMD8 [8]; TMD8, 100 nM acalabrutinib, 24 hours, relative to the insensitive cell line): increased
effect on apoptotic/dead cells (Karpas422 [9]): minimal effect
cell death (OCILy10 [2]; OCI-LY-10, 32 hours of 100 nM acalabrutinib alone): ~20%
